The text below walks through data of article PMC8667925, “New 1,2,4-oxadiazole derivatives with positive mGlu4 receptor modulation activity and antipsychotic-like properties” (Journal of Enzyme Inhibition and Medicinal Chemistry, 2021).

“Also recorded” adds a separate entry of the source. Marks after values point to notes of the source that are not given here.

In one series the test system is Albino Swiss mice. The series can be described thus: modified stress-induced hyperthermia (SIH) in singly housed mice. The class given is in vivo. The procedure: The compounds were dissolved in a small amount of 100% EtOH and then adjusted with 20% cyclodextrin, and the pH was adjusted to 6.0. The investigated compounds were administered intraperitoneally (i.p.) 60 min before the behavioural test. Control drugs i.e. diazepam, clozapine and imipramine (Sigma–Aldrich, St. Louis, USA), were administered i.p. 60 min before the behavioural test. Cyclodextrin (20%) was used as a vehicle. All solutions were prepared immediately prior to the experiments and were administered at a constant volume of 10 ml/kg.
The procedure for modified stress-induced hyperthermia was adapted from Van der Heyden[93] and based on the procedure introduced by Borsini[94]. Each experimental group consisted of eight to ten animals. The animals were housed individually in a 26 × 21 × 14 cm Macolon cage 24 h before testing. For this assay, the body temperature was measured for each mouse at t = 0 min (T1) and t = +15 min (T2). Albino Swiss mice were placed into a new cage immediately following T1, with the difference in temperature (T2−T1) used as the measure of stress-induced hyperthermia. […] A comparison between T1 in vehicle-treated mice and those administered the test compound was used to determine whether the agent affects body temperature alone. Diazepam (5 mg/kg) was used as the positive control. The rectal temperature was measured to the nearest 0.1 °C with a Physitemp Theralert thermometer, TH-5, Clifton NJ, USA, with the temperature sensor for mice, Type T, Copper-Constantan Thermocouple, Braintree Scientific Inc. The lubricated thermistor probe (2 mm diameter) was inserted 20 mm into the rectum. The mouse was held at the base of the tail during this determination, and the thermistor probe was left in place until a constant reading was obtained for 15 s. The effects of the investigated compounds on the SIH response were investigated after administration of the compounds at doses of 5, 10 and 20 mg/kg.

For series [1], the system named is Salmonella typhimurium strains TA98 and TA100. It is filed as cell-based. The note with it: TA98 and TA100, with and without S9, ≤ 30 µM. The procedure:
The primary assessment of the cardiotoxic risk and mutagenic potential of the six selected 1,2,4-oxadiazole derivatives was performed in the hERG channel assay and the mini-AMES test, respectively. The mutagenicity potential was determined in strains TA98 (frameshift mutation) and TA100 (base-pair substitution) of Salmonella typhimurium in the presence and absence of an exogenous metabolic activation system (rat liver S9 fraction) containing mammalian microsomal enzymes.
The Ames microplate fluctuation protocol (MPF) assay was performed with Salmonella typhimurium strains TA98 and TA100, […]. The bacterial strain as well as the exposure and indicator medium were obtained from Xenometrix AG (Allschwil, Switzerland). […] After the addition of indicator medium, each well of the 24-well plate was aliquoted into 48 wells of a 384-well plate.
The occurrence of reversion events to histidine prototrophy was observed as the growth of bacteria in the indicator medium without histidine after 72 h of incubation at 37 °C. Bacterial growth in 384-well plates was visualised by a colour change of medium from violet to yellow due to the addition of pH indicator dye. The absorbance was measured with a microplate reader (EnSpire) at 420 nm. The reference mutagen NQNO (0.5 mM) was used as a positive control in the experiments. The medium control baseline (MCB) was calculated, as derived from the mean number of revertants in the medium control plus one standard deviation.
AMES test was conducted with two Salmonella typhimurium strains TA98 and TA100 in the presence or absence of liver homogenate S9 to simulate the metabolic conversions of tested compounds with liver enzymes. The AMES MPF 98/100 assay from Xenometrix was performed as described by the supplier. Data were analysed with the AMES MPF calculation […]
(also on this page, place not known: TA10 cal culation TA98 - S9 Revertants TA98 + S9 Revertants - S9 Revertants TA100 + S9 Revertants TA98 - S9 Revertants TA98 + S9 Revertants TA100 - S9 Revertants 0 TA100 + S9 Revertants)

In a further series the target is T1, mGlu4 receptor (Homo sapiens, UniProt Q14833).
T1 construct: mGlu4 receptor NM_000841, mGlu7 receptor NM_000844.2, and mGlu8 receptor NM_000845; expressed in transfected cells; host or cells: T-REx 293
T1 sequence (Q14833 33-912): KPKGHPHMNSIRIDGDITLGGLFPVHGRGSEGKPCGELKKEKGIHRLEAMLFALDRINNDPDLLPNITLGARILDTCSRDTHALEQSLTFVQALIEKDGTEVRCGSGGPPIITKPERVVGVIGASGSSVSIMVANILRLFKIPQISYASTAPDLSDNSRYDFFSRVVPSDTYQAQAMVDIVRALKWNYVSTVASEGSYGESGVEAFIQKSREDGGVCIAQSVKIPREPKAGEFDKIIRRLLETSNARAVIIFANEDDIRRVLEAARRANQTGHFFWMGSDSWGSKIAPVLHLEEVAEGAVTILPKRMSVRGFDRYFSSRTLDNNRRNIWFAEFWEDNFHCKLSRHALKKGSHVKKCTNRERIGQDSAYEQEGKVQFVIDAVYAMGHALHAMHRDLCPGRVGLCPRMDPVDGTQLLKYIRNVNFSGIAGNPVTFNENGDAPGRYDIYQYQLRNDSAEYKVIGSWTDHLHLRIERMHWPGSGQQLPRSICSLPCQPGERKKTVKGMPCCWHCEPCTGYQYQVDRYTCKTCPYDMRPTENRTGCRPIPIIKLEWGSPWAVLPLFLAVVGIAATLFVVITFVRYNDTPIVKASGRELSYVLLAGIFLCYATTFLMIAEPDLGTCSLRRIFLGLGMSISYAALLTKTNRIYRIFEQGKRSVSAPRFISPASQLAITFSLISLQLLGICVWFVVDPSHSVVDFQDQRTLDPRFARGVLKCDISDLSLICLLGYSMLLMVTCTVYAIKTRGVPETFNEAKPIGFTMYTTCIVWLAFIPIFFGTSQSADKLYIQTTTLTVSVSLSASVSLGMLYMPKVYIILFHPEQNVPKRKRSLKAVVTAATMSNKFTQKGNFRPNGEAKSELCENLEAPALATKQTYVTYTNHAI
Nature of the series: forskolin-stimulated cAMP assay, PAM mode (EC20 of L-Glu), T-REx 293 cells. The class given is cell-based. The note with it: SEM where given; for EC50 / Emax: PAM mode; for EC50: EC20 (3 µM) L-Glu, T-REx 293 cells expressing human mGlu4 receptor; for Emax: T-REx-293, human mGlu4, read-out: GluMax; for Fold shift of L-Glu dose-response curve: in the presence of 10 µM of compound. The procedure:
The activity of the compounds was assessed in vitro in a forskolin-stimulated cAMP assay in T-REx 293 cells expressing human mGlu4 receptors in the presence of an EC20 concentration of L-Glu; a PAM was identified if it potentiated cAMP inhibition by the Gi/o-dependent pathway of mGlu4 receptor activation; i.e. if it was able to produce a leftward shift in the potency of the endogenous agonist.
Determination of the intracellular cAMP through a homogeneous time-resolved fluorescence (HTRF) cAMP dynamic 2 kit from Cisbio (Codolet, France) was described previously by Chruścicka et al.[91]. Briefly, cells were grown in DMEM supplemented with 10% foetal bovine serum (FBS) (tetracycline free). Forty-eight hours before the experiments, mGlu receptor expression was induced by the addition of 0.75 µg/mL tetracycline. Twenty hours before the experiment, FBS and L-Glu were removed from the medium. Thereafter, the cells were scraped and centrifuged. A cell pellet was suspended in Hanks-HEPES (130 mM NaCl, 5.4 mM KCl, 1.8 mM CaCl2, 0.8 mM MgSO4, 0.9 mM NaH2PO4, 20 mM HEPES, and 3.25 mM glucose; pH 7.4). Then, the cell suspension was incubated in the presence of 10 µM forskolin (or 3 µM forskolin for mGlu7 receptor), the agonist L-glutamate and a compound for 5 min. Next, 10 µl of the cell suspension was mixed with 5 µl of cAMP-d2 conjugate and 5 µL of anti-cAMP cryptate conjugate. After 1 h of incubation at rt, the fluorescence at 620 nm and 665 nm was read (Tecan Infinite M1000). The results were calculated as the 665 nm/620 nm ratio multiplied by 10^4. Each sample was prepared in triplicate.
Statistical calculations were performed using GraphPad Prism 5.04 software (GraphPad Software, La Jolla, CA, USA). The curves were fitted to a 3-parametric logistic equation, allowing for the determination of EC50 values. Each data point was analysed in triplicate.
For orientation: Changes in cAMP serve as a functional read-out for many G protein-coupled receptors.

[2] abbreviates: over the doses 5, 10 and 20 mg/kg i.p.
The mark [3] stands for this setting: 5 mg/kg i.p., 60 min before test.
Setting [4] is: 20 mg/kg i.p., 60 min before test.
Where [5] appears, read: 10 mg/kg i.p., 60 min before test.

Broadly, the EC50 is the midpoint of the concentration-response curve. Consider `O=C(Nc1ccc(-c2noc(-c3ccccc3Cl)n2)c(Cl)c1)c1ccccn1` [Compound 52, N-(3-chloro-4-(5-(2-chlorophenyl)-1,2,4-oxadiazol-3-yl)phenyl)picolinamide], for which, in the series on Albino Swiss mice (setting [2]), the “effect on SIH response” value is “significant anxiolytic- and antipsychotic-like properties; also recorded: significantly reduced SIH responses at all three doses; also recorded: at all doses significantly reduced the SIH response”. Moreover, the “mutagenic activity (mini-AMES)” value in series [1] was “no mutagenic potential”. Besides, on mGlu4 receptor, the concentration giving a half-maximal response (EC50) is 0.282 µM, the Emax was found to be 123% and the “Fold shift of L-Glu dose-response curve” value is reported as 8.03 (0.76)^d.

As for `O=C(Nc1ccc(-c2noc(-c3ccccc3Cl)n2)c(C(F)(F)F)c1)c1ccccn1` [Compound 60], the “effect on SIH response” value with Albino Swiss mice (setting [3]) is reported as “reduced the temperature increase caused by stress”. Besides, the “effect on SIH response” value in the series with Albino Swiss mice (setting [4]) is “reduced the temperature increase caused by stress”. For the same compound, in the series with Albino Swiss mice (setting [2]), the “effect on SIH response” value is “significant anxiolytic- and antipsychotic-like properties”. For the same compound, the “mutagenic activity (mini-AMES)” value in series [1] was “no mutagenic potential”. Moreover, on mGlu4 receptor, the half-maximal effective concentration (EC50) worked out at 0.39 µM, the Emax amounted to 120% and the “Fold shift of L-Glu dose-response curve” value was 2.94 (0.1)^d.

As to `COc1cc(NC(=O)c2ccccn2)ccc1-c1noc(-c2ccccc2F)n1` [Compound 37], in the series on Albino Swiss mice (setting [5]), the “effect on SIH response” value is listed as “effective; also recorded: weak activity”. Moreover, the “effect on SIH response” value in the series with Albino Swiss mice (setting [2]) was “significant anxiolytic- and antipsychotic-like properties”. Further, the “mutagenic activity (mini-AMES)” value in series [1] was “no mutagenic potential”. On mGlu4 receptor, the half-maximal effective concentration (EC50) amounted to 0.393 µM, the Emax is 116% and the “Fold shift of L-Glu dose-response curve” value is listed as 3.68 (0.19)^d.

As for `COc1cc(NC(=O)c2ccccn2)ccc1-c1noc(-c2ccccc2Cl)n1` [Compound 34], the “effect on SIH response” value was “not effective” in the series on Albino Swiss mice (setting [3]); “effective; also recorded: statistically significant reduction in SIH” in the series on Albino Swiss mice (setting [5]); “effective; also recorded: statistically significant reduction in SIH” in the series with Albino Swiss mice (setting [4]); “significant anxiolytic- and antipsychotic-like properties” in the series on Albino Swiss mice (setting [2]). In series [1], the “mutagenic activity (mini-AMES)” value is “no mutagenic potential”. In addition, the 50% effective concentration (EC50) on mGlu4 receptor is 0.656 µM. Further, the Emax at mGlu4 receptor was determined as 114%. Moreover, the “Fold shift of L-Glu dose-response curve” value at mGlu4 receptor was 13.4 (2.00)^d.
